Assay results from patent publication US20230174584A1, “Antibiotic Compounds” (priority 2019, published 2023).
≈ marks a conversion by molar mass, not a printed value.

Assays:
S. aureus ATCC29213 = test: MIC assay; type: cell-based, Staphylococcus aureus
Summary of the method: (§1)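 Read-out: lowest concentration inhibiting growth, reported as the median MIC (μg/mL) over ≥ triplicates. Set-up: CLSI method, TSB with 0.002% polysorbate 80, 10^6 CFU/mL inoculum added in equal volume to 2-fold dilutions, 37 °C for 24 h with 600 rpm agitation.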

[1] = tested on: S. aureus HIP12864, NR-46074; test: MIC assay; type: cell-based, Staphylococcus aureus
Summary of the method: as §1

[2] = tested on: S. aureus 880 (BR-VRSA), NR-49120; test: MIC assay; type: cell-based, Staphylococcus aureus
Summary of the method: as §1

[3] = tested on: S. aureus LIM-2, NR-25881; test: MIC assay; type: cell-based, Staphylococcus aureus
Summary of the method: as §1

[4] = tested on: S. aureus NY-155, NR-46236; test: MIC assay; type: cell-based, Staphylococcus aureus
Summary of the method: as §1

NRS19 = test: MIC assay, VISA and VRSA panel; type: cell-based, Staphylococcus aureus
Procedure: (§2) The antibacterial activity of the compounds was tested against a panel of bacteria, including Gram-positive bacteria (S. aureus ATCC29213, S. aureus USA300, S. aureus LIM-2, NR-45881, S. aureus HIP13419, NR-46413, E. faecium E155, E. faecium E7314, E. faecium E980, E. faecalis E1246, E. faecalis E7406 and S. pneumonia 153). The antibacterial activity of the compounds was further tested against S. aureus NY-155, NR-46236, S. aureus HIP12864, NR-46074, S. aureus 880 (BR-VRSA), NR-49120, E. faecalis E1246, E. faecalis E7604, as well as some Gram-negative bacteria (Escherichia coli and Klebsiella pneumoniae). Minimum inhibitory concentrations (MICs) in μg/mL were performed according to the CLSI guidelines. From glycerol stocks, bacterial strains were cultured on blood agar plates and incubated at 37° C. for 18 h. A single colony was transferred to tryptic soy broth (TSB) with 0.002% polysorbate 80 (p80). For the Enterococcus, VISA and VRSA strains, the cultures were grown at 37° C. until the optical density of the suspension reached a level equivalent to the 0.5 McFarland standard. The bacterial suspensions were diluted in TSB with 0.002% p80 to reach a bacterial cell density of 10^6 CFU/mL. In case of the other (vancomycin-sensitive) S. aureus strains, the direct colony suspension method was used. For these strains, after transfer of the colonies to TSB with 0.002% p80, they were immediately diluted to 10^6 CFU/mL, instead of incubated prior to this dilution. In the case of S. pneumonia, direct colony suspension was used by immediately suspending multiple colonies from fresh blood agar plates in TSB+0.002% p80 to an OD600 of 0.5 and subsequent dilution to 10^6 CFU mL^−1 in TSB+0.002% p80+5% lysed horse blood. Antibiotic dilutions for this strains were also made in TSB+0.002% p80+5% lysed horse blood. Both agar and microplates containing S. pneumonia were incubated at 37° C. with 5% CO2 for 24 h with constant shaking (600 rpm). […] The cultures were grown to exponential phase (OD600=0.5) at 37° C. […] In polypropylene 96-well microtiter plates, test compounds were added in biological triplicates and serial diluted 2-fold by transfer and mixing from one well to the next to achieve a final volume of 50 μL per well. An equal volume of bacterial suspension (10^6 CFU mL^−1) was added to the wells. The plates were sealed with breathable membranes and incubated at 37° C. for 24 h with constant shaking (600 rpm). In polypropylene microtiter plates, 100 μL of the test compounds was added to the first row in biological triplicates, and 50 μL of media was added to the other wells. The compounds were subjected to serial dilution by transfer and mixing of 50 μL from one well to the next. Subsequently, 50 μL of bacterial suspension (10^6 CFU/mL) was added to the wells. The plates were sealed with breathable membranes and incubated at 37° C. for 24 h with constant shaking (600 rpm). Positive growth control consisted of wells with bacterial suspension and without antibiotic. Negative growth control consisted of solely media without bacterial suspension or antibiotic. The MICs were determined from the median of a minimum of triplicates.

VRS2 = test: MIC assay, VISA and VRSA panel; type: cell-based, Staphylococcus aureus
Procedure: as §2

NRS51 = test: MIC assay, VISA and VRSA panel; type: cell-based, Staphylococcus aureus
Procedure: as §2

NRS52 = test: MIC assay, VISA and VRSA panel; type: cell-based, Staphylococcus aureus
Procedure: as §2

VRS5 = test: MIC assay, VISA and VRSA panel; type: cell-based, Staphylococcus aureus
Procedure: as §2

E. faecalis E7406 = test: microbe, parasite or virus in culture; type: cell-based, Enterococcus faecalis
Summary of the method: as §1

E. faecalis E7604 = test: microbe, parasite or virus in culture; type: cell-based, Enterococcus faecalis
Summary of the method: as §1

E. faecium E155 = test: microbe, parasite or virus in culture; type: cell-based, Enterococcus faecium
Summary of the method: as §1

E. faecium E7314 = test: microbe, parasite or virus in culture; type: cell-based, Enterococcus faecium
Summary of the method: as §1

E. faecium E980 = test: MIC assay; type: cell-based, Enterococcus faecium
Summary of the method: as §1

S. aureus USA300 = test: microbe, parasite or virus in culture; type: cell-based, Staphylococcus aureus
Summary of the method: as §1

[5] = tested on: S. aureus HIP13419, NR-46413; test: microbe, parasite or virus in culture; type: cell-based, Staphylococcus aureus
Summary of the method: as §1

E. faecium E0341 = test: MIC assay; type: cell-based, Enterococcus faecium; details: E. faecium E0341, VanA
E. faecium E2359 = test: MIC assay; type: cell-based, Enterococcus faecium; details: E. faecium E2359, VanB
E. faecium E7403 = test: MIC assay; type: cell-based, Enterococcus faecium; details: E. faecium E7403, VanB
Summary of the method: as §1

## CN[C@H](CC(C)C)C(=O)N[C@H]1C(=O)N[C@@H](CC(N)=O)C(=O)N[C@H]2C(=O)N[C@H]3C(=O)N[C@H](C(=O)N[C@H](C(=O)O)c4cc(O)cc(O)c4-c4cc3ccc4O)[C@H](O[C@H]3C[C@](C)(N)[C@@H](O)[C@H](C)O3)c3ccc(c(Cl)c3)Oc3cc2cc(c3O[C@@H]2O[C@H](CO)[C@@H](O)[C@H](O)[C@H]2O[C@H]2C[C@](C)(NCc3ccc(-c4ccc(Cl)cc4)cc3)[C@@H](O)[C@H](C)O2)Oc2ccc(cc2Cl)[C@H]1O [Oritavancin]
S. aureus ATCC29213; Staphylococcus aureus, ATCC 29213 / MSSA
  MIC: 0.25 µg/mL (≈ 0.139 µM)
[1]; Staphylococcus aureus, VISA
  MIC: 4 µg/mL (≈ 2.23 µM)
[2]; Staphylococcus aureus, VRSA
  MIC: 0.25 µg/mL (≈ 0.139 µM)
[2]; strain BR-VRSA
  MIC: 0.25 µg/mL (≈ 0.139 µM)
[3]; Staphylococcus aureus, VISA
  MIC: 1 µg/mL (≈ 0.558 µM)
[4]; Staphylococcus aureus, MRSA
  MIC: 0.25 µg/mL (≈ 0.139 µM)
NRS19; Staphylococcus aureus, NRS19
  MIC: 1 µg/mL (≈ 0.558 µM)
VRS2; Staphylococcus aureus
  MIC: 0.25 µg/mL (≈ 0.139 µM)
NRS51; Staphylococcus aureus, NRS51
  MIC: 0.5 µg/mL (≈ 0.279 µM)
NRS52; Staphylococcus aureus, NRS52
  MIC: 0.5 µg/mL (≈ 0.279 µM)
VRS5; Staphylococcus aureus
  MIC: 0.5 µg/mL (≈ 0.279 µM)
E. faecalis E7406; Enterococcus faecalis, VRE
  MIC: 0.0625 µg/mL (≈ 0.0349 µM)
E. faecalis E7604; Enterococcus faecalis, VRE
  MIC: 0.063 µg/mL (≈ 0.0351 µM)
E. faecium E155; Enterococcus faecium, VRE
  MIC: 0.5 µg/mL (≈ 0.279 µM)
E. faecium E7314; Enterococcus faecium, VRE
  MIC: 0.125 µg/mL (≈ 0.0697 µM)
E. faecium E980; Enterococcus faecium, E980
  MIC: 0.0625 µg/mL (≈ 0.0349 µM)
S. aureus USA300; Staphylococcus aureus, MRSA / USA300
  MIC: 0.0625 µg/mL (≈ 0.0349 µM)
[5]; Staphylococcus aureus, VRSA
  MIC: 0.25 µg/mL (≈ 0.139 µM)

## CCCCCCCNC(N)=Nc1ccc(CN[C@@]2(C)C[C@H](O[C@H]3[C@H](Oc4c5cc6cc4Oc4ccc(cc4Cl)[C@@H](O)[C@@H](NC(=O)[C@@H](CC(C)C)NC)C(=O)N[C@@H](CC(N)=O)C(=O)N[C@H]6C(=O)N[C@H]4C(=O)N[C@H](C(=O)N[C@H](C(=O)O)c6cc(O)cc(O)c6-c6cc4ccc6O)[C@H](O)c4ccc(c(Cl)c4)O5)O[C@H](CO)[C@@H](O)[C@@H]3O)O[C@@H](C)[C@H]2O)cc1 [Compound 5]
S. aureus ATCC29213; S. aureus ATCC29213 MSSA
  MIC: ≤0.007812 µg/mL
[1]; S. aureus HIP12864, NR-46074 VISA
  MIC: 0.063 µg/mL (≈ 0.0372 µM)
[2]; S. aureus 880, NR-49120 VRSA
  MIC: 4 µg/mL (≈ 2.36 µM)
[2]; strain BR-VRSA
  MIC: 4 µg/mL (≈ 2.36 µM)
[3]; S. aureus LIM-2, NR-25881 VISA
  MIC: 0.031 µg/mL (≈ 0.0183 µM)
[4]; S. aureus NY-155, NR-46236 MRSA
  MIC: ≤0.008 µg/mL
E. faecium E0341
  MIC: 8 µg/mL (≈ 4.72 µM)
NRS19; strain NRS19
  MIC: 0.063 µg/mL (≈ 0.0372 µM)
VRS2; strain VRS2
  MIC: 0.25 µg/mL (≈ 0.148 µM)
NRS51; strain NRS51
  MIC: 0.031 µg/mL (≈ 0.0183 µM)
NRS52; strain NRS52
  MIC: 0.031 µg/mL (≈ 0.0183 µM)
VRS5; strain VRS5
  MIC: 4 µg/mL (≈ 2.36 µM)
E. faecium E2359
  MIC: ≤0.008 µg/mL
E. faecalis E7406; E. faecalis E7406 VRE (VanB)
  MIC: 0.01562 µg/mL (≈ 0.00922 µM)
E. faecalis E7604; E. faecalis E7604 VRE (vanB)
  MIC: 0.016 µg/mL (≈ 0.00944 µM)
E. faecium E155; E. faecium E155, VanA (Table 10)
  MIC: 2 µg/mL (≈ 1.18 µM)
E. faecium E155; E. faecium E155 VRE (VanA)
  MIC: 2 µg/mL (≈ 1.18 µM)
E. faecium E7314; E. faecium E7314, VanB (Table 10)
  MIC: ≤0.008 µg/mL
E. faecium E7314; E. faecium E7314 VRE (VanB)
  MIC: 0.007812 µg/mL (≈ 0.00461 µM)
E. faecium E7403
  MIC: ≤0.008 µg/mL
E. faecium E980; E. faecium E980 VSE
  MIC: ≤0.007812 µg/mL
S. aureus USA300; MRSA USA300, TSB + 0.002% p80
  MIC: 0.016 µg/mL
S. aureus USA300; S. aureus USA300 MRSA
  MIC: 0.01562 µg/mL (≈ 0.00922 µM)
[5]; S. aureus HIP13419, NR-46413 VRSA
  MIC: 1 µg/mL (≈ 0.59 µM)
